System: Plasmodium berghei
Experiment: Luciferase/luciferin-expressing antifolate-resistant parasites were used to infect a culture of HepG2 cells that were pre-incubated with compounds. Infected hepatocytes emit light due to the luciferase reaction. Assay results are presented as the percent inhibition of light emission compared to control. […]
Assay type: functional
Details: sporozoite; for IC90: read-out: LUCIFERASE INFECTION ASSAY - IC90

| SMILES | IC90 [µM] | other results |
| --- | --- | --- |
| FC(F)(F)c1nc2ccccc2n2c(-c3ccc(Cl)cc3)nnc12 | 3.27 | IC50 (HEPG2TOX_HILL_SLOPE 11.7, HEPG2TOX_R_SQUARED 0.937, PBLUC_HILL_SLOPE 49.4, PBLUC_R_SQUARED 0.195, read-out: LUCIFERASE INFECTION ASSAY - IC50): 3.13 µM |
| COc1ccccc1C(=O)/C=C/c1ccc(N2CCCCC2)c([N+](=O)[O-])c1 | > 10 | IC50 (HEPG2TOX_HILL_SLOPE 11.8, HEPG2TOX_R_SQUARED 0.223, read-out: LUCIFERASE INFECTION ASSAY - IC50): > 10 µM |
| O=C(Cn1ncc(Cl)c(Cl)c1=O)N1CCN(S(=O)(=O)c2ccc3ccccc3c2)CC1 | > 10 | IC50 (HEPG2TOX_HILL_SLOPE 11.9, 3.77, HEPG2TOX_R_SQUARED 0.663, 0.998, PBLUC_HILL_SLOPE 2.89, PBLUC_R_SQUARED 0.527, read-out: LUCIFERASE INFECTION ASSAY - IC50): 5.1 µM |
| CC1CCCC(C)N1CC(O)COC1CCC(C(C)(C)C)CC1 (configuration not stated) | 3.62 | IC50 (HEPG2TOX_HILL_SLOPE 11.8, HEPG2TOX_R_SQUARED 0.0956, PBLUC_HILL_SLOPE 13.2, PBLUC_R_SQUARED 0.651, read-out: LUCIFERASE INFECTION ASSAY - IC50): 3.06 µM |
| O=C(Nc1ccc(F)cc1F)c1cc(Br)ccc1O | 9.77 | IC50 (HEPG2TOX_HILL_SLOPE 11.9, HEPG2TOX_R_SQUARED 0.641, PBLUC_HILL_SLOPE 14.3, PBLUC_R_SQUARED 0.252, read-out: LUCIFERASE INFECTION ASSAY - IC50): 8.37 µM |
| Cc1ccc(SC(=O)c2c(C)noc2-c2ccc(Cl)cc2)cc1 | > 9.6 | IC50 (HEPG2TOX_HILL_SLOPE 11.7, HEPG2TOX_R_SQUARED 0.856, PBLUC_HILL_SLOPE 3.58, PBLUC_R_SQUARED 0.522, read-out: LUCIFERASE INFECTION ASSAY - IC50): 7.62 µM |
| CC(=O)Nc1ccc(-c2ccnc3n[nH]c(-c4ccsc4)c23)cc1 | 8.76 | IC50 (HEPG2TOX_HILL_SLOPE 11.6, HEPG2TOX_R_SQUARED 0.801, PBLUC_HILL_SLOPE 2.91, PBLUC_R_SQUARED 0.114, read-out: LUCIFERASE INFECTION ASSAY - IC50): 4.12 µM |
| COc1ccccc1C(=O)c1cnc(Nc2cccc(Cc3ccccc3)c2)[nH]1 | > 8.61 | IC50 (HEPG2TOX_HILL_SLOPE 11.7, HEPG2TOX_R_SQUARED 0.773, PBLUC_HILL_SLOPE 15.1, PBLUC_R_SQUARED 0.204, read-out: LUCIFERASE INFECTION ASSAY - IC50): 7.82 µM |
| O=[N+]([O-])c1cc(C(F)(F)F)ccc1Sc1nnc(-c2cc(Cl)cc(Cl)c2)[nH]1 | 7.2 | IC50 (HEPG2TOX_HILL_SLOPE 11.8, HEPG2TOX_R_SQUARED 0.697, PBLUC_HILL_SLOPE 13.2, PBLUC_R_SQUARED 0.063, read-out: LUCIFERASE INFECTION ASSAY - IC50): 6.09 µM |
| Cc1cc(O)cc2c1C(=O)/C(=C/c1ccc(Cl)cc1)O2 | 8.29 | IC50 (HEPG2TOX_HILL_SLOPE 11.8, HEPG2TOX_R_SQUARED 0.8, PBLUC_HILL_SLOPE 6.24, PBLUC_R_SQUARED 0.404, read-out: LUCIFERASE INFECTION ASSAY - IC50): 5.83 µM |
| C(=C(c1nc2ccccc2s1)c1nc2ccccc2s1)c1ccncc1 | 6.3 | IC50 (HEPG2TOX_HILL_SLOPE 11.7, HEPG2TOX_R_SQUARED 0.737, PBLUC_HILL_SLOPE 3.59, 2.80, PBLUC_R_SQUARED 0.729, 0.898, read-out: LUCIFERASE INFECTION ASSAY - IC50): 3.12 µM |
| Cc1ccc(NC(=O)Cn2nnc(-c3ccccc3)n2)cc1S(=O)(=O)N1CCCCCC1 | > 10 | IC50 (HEPG2TOX_HILL_SLOPE 11.8, HEPG2TOX_R_SQUARED 0.86, PBLUC_HILL_SLOPE 22, PBLUC_R_SQUARED 0.334, read-out: LUCIFERASE INFECTION ASSAY - IC50): 9.07 µM |
| COc1cccc(-c2cc3c(Nc4ccc(Oc5ccccc5)cc4)nccc3[nH]2)c1 | 4 | IC50 (HEPG2TOX_HILL_SLOPE 11.8, HEPG2TOX_R_SQUARED 0.973, PBLUC_HILL_SLOPE 14.2, PBLUC_R_SQUARED 0.35, read-out: LUCIFERASE INFECTION ASSAY - IC50): 3.43 µM |
| COC(=O)c1sc(S(C)(=O)=O)c(C#N)c1-c1cccs1 | 5.13 | IC50 (HEPG2TOX_HILL_SLOPE 11.8, HEPG2TOX_R_SQUARED 0.984, PBLUC_HILL_SLOPE 123, PBLUC_R_SQUARED 0.486, read-out: LUCIFERASE INFECTION ASSAY - IC50): 5.04 µM |
| C=c1ccccc1=C1NN=C(Sc2cnn(-c3ccc(C(F)(F)F)cn3)c(=O)c2Cl)N1CC | 5.32 | IC50 (HEPG2TOX_HILL_SLOPE 11.7, 13.0, HEPG2TOX_R_SQUARED 0.881, 0.478, PBLUC_HILL_SLOPE 8.47, PBLUC_R_SQUARED 0.136, read-out: LUCIFERASE INFECTION ASSAY - IC50): 4.11 µM |
| CCCCCn1c(Sc2ncc([N+](=O)[O-])s2)n[nH]c1=O | > 10.5 | IC50 (HEPG2TOX_HILL_SLOPE 11.8, HEPG2TOX_R_SQUARED 0.641, PBLUC_HILL_SLOPE 4, PBLUC_R_SQUARED 0.202, read-out: LUCIFERASE INFECTION ASSAY - IC50): 7 µM |

| SMILES | IC90 [µM] | other results |
| --- | --- | --- |
| Cc1cc(Cl)ccc1OCc1nnc(-c2ccccn2)[nH]1 | 3.63 | IC50 (HEPG2TOX_HILL_SLOPE 11.7, HEPG2TOX_R_SQUARED 0.29, PBLUC_HILL_SLOPE 34.3, PBLUC_R_SQUARED 0.372, read-out: LUCIFERASE INFECTION ASSAY - IC50): 3.41 µM |
| O=C(Nc1cccc(Cl)c1)c1cccc(NC(=O)c2cccs2)c1 | 9.24 | IC50 (HEPG2TOX_HILL_SLOPE 11.6, HEPG2TOX_R_SQUARED 0.635, PBLUC_HILL_SLOPE 2.89, PBLUC_R_SQUARED 0.488, read-out: LUCIFERASE INFECTION ASSAY - IC50): 4.32 µM |
| CCCNC(=O)/C(=C\c1cccc(Br)c1)c1nc2ccccc2[nH]1 | 9.54 | IC50 (HEPG2TOX_HILL_SLOPE 11.6, HEPG2TOX_R_SQUARED 0.535, PBLUC_HILL_SLOPE 4.15, PBLUC_R_SQUARED 0.775, read-out: LUCIFERASE INFECTION ASSAY - IC50): 5.62 µM |
| CCN1C(=O)N(Cc2cccc(OC)c2)C(=O)C12CCN(Cc1ccc3c(c1)Cc1ccccc1-3)CC2 | > 6.66 | IC50 (HEPG2TOX_HILL_SLOPE 11.9, HEPG2TOX_R_SQUARED 0.897, PBLUC_HILL_SLOPE 2.37, PBLUC_R_SQUARED 0.639, read-out: LUCIFERASE INFECTION ASSAY - IC50): 3.29 µM |
| O=C(Nc1cc(Cl)cc(Cl)c1)Nc1cccnc1N1CCC(C(F)(F)F)CC1 | 2.83 | IC50 (HEPG2TOX_HILL_SLOPE 11.8, HEPG2TOX_R_SQUARED 0.784, PBLUC_HILL_SLOPE 19.7, PBLUC_R_SQUARED 0.439, read-out: LUCIFERASE INFECTION ASSAY - IC50): 2.53 µM |
| CS(=O)(=O)c1ccc(C(=O)Nc2ccc(S(=O)(=O)NCc3ccco3)cc2)cc1[N+](=O)[O-] | > 10 | IC50 (HEPG2TOX_HILL_SLOPE 11.7, HEPG2TOX_R_SQUARED 0.595, read-out: LUCIFERASE INFECTION ASSAY - IC50): > 10 µM |
| O=C(Nc1ccccc1)Nc1ccc(C(=O)Nc2cc(C(F)(F)F)ccc2N2CCOCC2)s1 | 5.82 | IC50 (HEPG2TOX_HILL_SLOPE 11.7, HEPG2TOX_R_SQUARED 0.346, PBLUC_HILL_SLOPE 5.22, 24.2, PBLUC_R_SQUARED 0.290, 0.170, read-out: LUCIFERASE INFECTION ASSAY - IC50): 4.29 µM |
| CCOc1ccc(C(=O)Nc2ccc(N(CC)CC)cc2)cc1Br | 3.6 | IC50 (HEPG2TOX_HILL_SLOPE 11.9, HEPG2TOX_R_SQUARED 0.281, PBLUC_HILL_SLOPE 11.4, PBLUC_R_SQUARED 0.34, read-out: LUCIFERASE INFECTION ASSAY - IC50): 2.97 µM |
| O=C(c1cc2ccccc2cc1O)N1CCN(Cc2ccc3c(c2)OCO3)CC1 | 8.06 | IC50 (HEPG2TOX_HILL_SLOPE 11.9, HEPG2TOX_R_SQUARED 0.324, PBLUC_HILL_SLOPE 2.98, 3.06, PBLUC_R_SQUARED 0.831, 0.940, read-out: LUCIFERASE INFECTION ASSAY - IC50): 4.38 µM |
| CN(C)S(=O)(=O)c1ccc2oc(SCC(=O)Nc3cc(C(C)(C)C)no3)nc2c1 | 3.96 | IC50 (HEPG2TOX_HILL_SLOPE 11.6, HEPG2TOX_R_SQUARED 0.793, PBLUC_HILL_SLOPE 13.5, PBLUC_R_SQUARED 0.437, read-out: LUCIFERASE INFECTION ASSAY - IC50): 3.36 µM |
| O=C(/C=C/c1cccc([N+](=O)[O-])c1)c1cccc(N2CCCC2=O)c1 | 4.73 | IC50 (HEPG2TOX_HILL_SLOPE 11.8, HEPG2TOX_R_SQUARED 0.912, PBLUC_HILL_SLOPE 14.2, PBLUC_R_SQUARED 0.853, read-out: LUCIFERASE INFECTION ASSAY - IC50): 4.05 µM |
| Cc1cccc(Cn2c(CN3CCCCC3)nc3ccccc32)c1 | 9.84 | IC50 (HEPG2TOX_HILL_SLOPE 11.8, HEPG2TOX_R_SQUARED 0.182, PBLUC_HILL_SLOPE 4.42, PBLUC_R_SQUARED 0.595, read-out: LUCIFERASE INFECTION ASSAY - IC50): 5.99 µM |
| Cn1c(-c2ccsc2)cc2c(Nc3ccc(Oc4ccccc4)cc3)nccc21 | 3.44 | IC50 (HEPG2TOX_HILL_SLOPE 11.7, HEPG2TOX_R_SQUARED 0.553, PBLUC_HILL_SLOPE 10.6, PBLUC_R_SQUARED 0.752, read-out: LUCIFERASE INFECTION ASSAY - IC50): 2.8 µM |
| CC1CC(C)CN(Cc2ccc(C(=O)Nc3ccccc3)cc2)C1 (configuration not stated) | 7.47 | IC50 (HEPG2TOX_HILL_SLOPE 11.8, HEPG2TOX_R_SQUARED 0.877, PBLUC_HILL_SLOPE 2.66, PBLUC_R_SQUARED 0.557, read-out: LUCIFERASE INFECTION ASSAY - IC50): 3.28 µM |
| O=C1/C(=C/c2ccc(C(F)(F)F)cc2)CCC/C1=C\c1ccc(C(F)(F)F)cc1 | 7.87 | IC50 (HEPG2TOX_HILL_SLOPE 11.7, HEPG2TOX_R_SQUARED 0.984, PBLUC_HILL_SLOPE 3.19, PBLUC_R_SQUARED 0.77, read-out: LUCIFERASE INFECTION ASSAY - IC50): 3.95 µM |

Reference: ChEMBL document CHEMBL4483862, “Open-source discovery of chemical leads for next-generation chemoprotective antimalarials” (2018)
